# Assay results reported in US5180729A, “Use of sigma receptor antagonists for treatment of cocaine abuse” (Du Pont Merck Pharmaceutical Company, priority 1991, dated 1993).
# Tested on: cocaine-induced motor activity
# Test: Cocaine-induced behavior and baseline motor activity, same animal system (haloperidol)
# Type: in vivo
# Settings: for Effect on baseline motor activity in the absence of cocaine (in words): same animal system as Ex. No. 504, cocaine-free animals
# Method: Cocaine was administered to mice or rats and its effect in stimulating motor activity was quantified. The cocaine-stimulated motor activity was used to evaluate the effects of the sigma receptor antagonist in reducing this enhanced motor stimulation, i.e., counteracting the pharmacological effect of cocaine in the animal.
compound,measurement,setting,value
O=C(CCCN1CCC(O)(c2ccc(Cl)cc2)CC1)c1ccc(F)cc1 [haloperidol],Effect on cocaine-induced behavior (in words),same animal system as Ex. No. 504,did not specifically inhibit cocaine-induced behavior
same,Effect on baseline motor activity in the absence of cocaine (in words),,significantly depressed baseline motor activity
same,Effect on baseline motor activity in the absence of cocaine (in words),listed as Haloperidol,adverse non-selective attenuation of normal motor activity
